This is an account of results in patent US6407073B1, “Use of coumarin derivatives for the treatment of digestive tract disorders” (Bio-Monde Preparations Limited, priority 1997, dated 2002).

For test [1], the system named is mice with AAP-induced hepatotoxicity. In words: Survival of mice with acetaminophen (AAP)-induced hepatotoxicity. It counts as in vivo, CBA/H Zgr inbred mice. The conditions noted are these: for No of dead mice/Total No of mice / Mortality (%): 48 hours; for mortality in comparison with control mice given saline: 250 mg/kg. The text has this: The hepatoprotective effect of a composition in accordance with the invention was investigated in mice with acetaminophen (paracetamol) induced hepatotoxicity.
CBA/H Zgr inbred mice were raised in an animal colony unit. Mice of both sexes aged 3 to 4 month were used in the experiments. Mice were maintained under standard laboratory conditions, fed with commercially available murine food pellets and allowed water ad libitum.
The procedure of Guarner was followed (see Hepatology 1988; 3:248-53). To induce hepatic drug-metabolising enzymes, mice were given phenobarbitone-sodium in drinking water for 7 days (0.3 g/L). Thereafter, mice were fasted overnight. […]
The above ingredients were dissolved in phosphate buffered saline (PBS) to which several drops of Tween 20™ (polyoxyethylene 20 sorbitan monolaurate) were added (50 μl/ml). The resulting white milk suspension was administered to mice intraperitoneally.
At the same time, control animals were given 0.5 ml of pyrogen-free saline to which several drops of Tween 20™ (50 μl/ml) were added.
Acetaminophen, dissolved in heated PBS, was given intragastrically, by stomach tube, in a volume of 0.5 ml. Animals were allowed food 4 hours later. Mortality of mice was followed for 48 hours, as previous results have shown that control mice (given saline rather than the composition before acetaminophen) either die within this period or fully recover and survive indefinitely.
Differences in survival between groups of mice were compared by χ^2-test. Plasma AST and ALT concentrations are expressed as means±SEM and differences between groups were compared by Student's t-test.

Test [2] shares this test system. In words: Plasma aminotransferase levels in mice with AAP-induced hepatotoxicity. It counts as in vivo, CBA/H Zgr inbred mice. Here is the method:
Plasma aspartate aminotransferase (AST) and alanine aminotransferase (ALT) were measured 24 hours after the administration of acetaminophen, because it has been observed that the levels of AST and ALT are at their peak values at this time. Mice were given 250 units of […] intraoeritoneally 15 minutes before bleeding. Blood was obtained by puncture of medial orbital angle using glass capillary tubes. Plasma was stored at −20° C. until aminotransferase determination, which was carried out using standard laboratory techniques (see Expert Panel on Enzymes, Committee on Standards, Clin. Chem. Biochem. 1977; 15: 39-51 and Clin. Chem. Acta. 1980; 105: 147F-54F). Differences in survival between groups of mice were compared by χ^2-test. Plasma AST and ALT concentrations are expressed as means±SEM and differences between groups were compared by Student's t-test. The effect of a Compound of the invention (Hymecromone) was investigated on plasma aminotransferase levels in mice with AAP-induced hepatotoxicity. Hymecromone (250 mg/kg) or a control of saline was given to mice 30 minutes before administration of acetaminophen (220 mg/kg). Plasma AST and ALT were measured 24 hours after acetaminophen administration. […] As shown, in comparison with normal mice, the administration of acetaminophen increased AST and ALT by approximately 19 and 100 times, respectively.

Where [3] appears, read: Table 1, Hymecromone 50 mg/kg i.p. 30 minutes before AAP 300 mg/kg.
The mark [4] stands for this setting: Table 1, Hymecromone 250 mg/kg i.p. 30 minutes before AAP 300 mg/kg, P < 0.01 vs saline.
Setting [5] is: Table 2, Hymecromone 50 mg/kg i.p. 30 minutes before AAP 250 mg/kg.
Setting [6] is: Table 2, Hymecromone 250 mg/kg i.p. 30 minutes before AAP 250 mg/kg, P < 0.001 vs saline.
[7] abbreviates: Table 3, Hymecromone 250 mg/kg i.p. 30 minutes before AAP 250 mg/kg, P < 0.001 vs saline.
The mark [8] stands for this setting: Hymecromone 250 mg/kg, AAP 220 mg/kg, P<0.005.
The mark [9] stands for this setting: plasma, Hymecromone 250 mg/kg 30 minutes before AAP 220 mg/kg, 24 hours after AAP, mean, n = 16, P < 0.005 vs saline.

Molecules are shown by their SMILES. Marks after values point to notes of the source that are not given here.

For the molecule `Cc1cc(=O)oc2cc(O)ccc12` [Hymecromone, 7-hydroxy-4-methylcoumarin], the “No of dead mice/Total No of mice” value in test [1] (Table 1, Hymecromone 10 mg/kg i.p. 30 minutes before AAP 300 mg/kg intragastrically) is 12/12; in test [1] (setting [3]), 11/12; in test [1] (setting [4]), 2/7; in test [1] (setting [5]), 9/13; in test [1] (setting [6]), 0/13; in test [1] (setting [7]), 0/15. Also, the “Mortality (%)” value in test [1] (Table 1, Hymecromone 10 mg/kg i.p. 30 minutes before AAP 300 mg/kg) is given as 100%; in test [1] (setting [3]), 92%; in test [1] (setting [4]), 29%; in test [1] (setting [5]) it was “(93) %”; in test [1] (setting [6]), “(0)^c %”; in test [1] (setting [7]) it was “(0)^c %”. In addition, the “mortality in comparison with control mice given saline” value was “significantly reduced the mortality” in test [1] (Table 1 experiment, P<0.01); “statistically significantly reduced the mortality” in test [1] (two further experiments (Tables 2 and 3), P<0.001). For the same molecule, the “reduction of the increase of ALT in comparison with control mice pretreated with saline” value in test [2] (setting [8]) was “three times”. The “reduction of the increase of AST in comparison with control mice pretreated with saline” value in test [2] (setting [8]) is “five times”. In addition, the ALT in test [2] (setting [9]) is reported as 776 U/L. The same molecule displayed an AST in test [2] (setting [9]) of 267 U/L.
